Results published in patent US20020010132A1, “COMPOSITIONS OF MURAMYL PEPTIDES INHIBITING THE REPLICATION OF HIV” (VACSYN S.A., priority 1994, published 2002).

Legend:
HIV [1] = settings: cited from earlier work
HIV (HTLV III Ba-L) = assay: HIV replication in primary cultures of human monocytes (viral protein P24 in supernatants, day 7); format: cell-based
Description: Some cultures were treated with different concentrations of the compounds either 1 day before, or the same day, or 1 day after inoculation with HIV. The replication of the virus was evaluated on day 7 by measurement of the quantity of viral protein P24 in the supernatants as described in Blood, Vol. 76, page 1490-1493, 1990.

[2] = Clinical trials: tolerance in healthy volunteers and cancer subjects; format: in vivo, man
macrophages in culture = assay: Proliferation of cultured macrophages (3H-thymidine incorporation); format: cell-based, human; settings: for inhibition of proliferation of macrophages stimulated with the combination IL-3/GM-CSF / inhibition of proliferation of macrophages stimulated with IL-3: 1 μg/ml; for inhibition of proliferation of macrophages stimulated with the combination IL-3/GM-CSF: hr IL-3 and hr GM-CSF stimulated; for inhibition of proliferation of macrophages stimulated with IL-3: hr IL-3 stimulated, compound added a day before 3H-thymidine; for inhibition of spontaneous proliferation: without stimulation
Description: For that, monocytes collected from a donor are cultured for 5 days either a) without stimulation (so as to evaluate their spontaneous proliferation level) or b) in the presence of human recombinant interleukin-3 (hr IL-3) or c) in the presence of both hr IL-3 and hr GM-CSF human recombinant granulocyte-macrophage colony stimulating factor. These two treatments make it possible to obtain a high level of proliferation. The compounds of the invention are added to the culture medium a day before the addition of tritiated thymidine (^3H-thymidine). The dividing cells incorporate this thymidine. The cells (which have differentiated into macrophages during the duration of the culture) are recovered and washed, and the proliferation level is evaluated by measuring, in a beta counter, the quantity of ^3H incorporated according to conventional methods as described in Blood, Vol. 76, pages 1490-1493, 1990.

guinea pig macrophages = settings: cited from earlier work
HIV [3] = settings: in vitro, 1000 μg/ml; cited from earlier work

Compound | side effects in man [2] | tolerance in man [2] | inhibition of proliferation of macrophages stimulated with the combination IL-3/GM-CSF (macrophages in culture) | inhibition of proliferation of macrophages stimulated with IL-3 (macrophages in culture) | inhibition of spontaneous proliferation (macrophages in culture; 10 μg/ml) | further results
CCCCCCCCCCCCCCCC(=O)OC[C@H](COP(=O)(O)OCCNC(=O)[C@H](C)NC(=O)CC[C@@H](NC(=O)[C@H](C)NC(=O)[C@@H](C)O[C@@H]([C@H](O)[C@H](O)CO)[C@H](C=O)NC(C)=O)C(N)=O)OC(=O)CCCCCCCCCCCCCCC [MTP-PE] | – | – | – | – | – | activity on viral replication (HIV [1]; compound added a day before or 4 days after): minimal; total suppression of viral replication (HIV [1]; free form or incorporated into liposomes): not capable; reduction in viral replication (HIV [1]; free form, added repeatedly before and after HIV infection): only a partial reduction in viral replication
CCCCOC(=O)[C@@H](CCC(N)=O)NC(=O)[C@H](C)NC(=O)[C@@H](C)O[C@H]1[C@H](O)[C@@H](CO)OC(O)[C@@H]1NC(C)=O (stereo partly drawn) [Murabutide, Nac-Mur-L-Ala-DGln OnC4H9] | free of side effects | very good tolerance | inhibiting the proliferation | inhibiting the proliferation | inhibition of spontaneous proliferation was observed | inhibition of viral replication (HIV (HTLV III Ba-L); 10 to 50 μg/ml, treatment on day -1, day 0 or day +1 relative to infection, P24 on day 7): completely inhibits viral replication
COC(=O)[C@@H](CCC(N)=O)NC(=O)[C@H](C)NC(=O)[C@@H](C)O[C@H]1[C@H](O)[C@@H](CO)OC(O)[C@@H]1NC(C)=O (stereo partly drawn) [Murametide, Nac-Mur-L-Ala-DGln OMe] | free of side effects | very good tolerance | inhibiting the proliferation | inhibiting the proliferation | inhibition of spontaneous proliferation was observed | suppression of viral replication (HIV (HTLV III Ba-L); 50 μg/ml, regardless of the time of treatment): 100%; suppression of viral replication (HIV (HTLV III Ba-L); different concentrations, treatment 1 day before, same day or 1 day after inoculation): highly significant suppression of viral replication; inhibition of spontaneous proliferation (macrophages in culture; 50 μg/ml): inhibition of spontaneous proliferation was observed
N-acetyl-muramyl-L-alanyl-D-Isoglutamine [MDP] | – | – | – | – | – | inhibition of the proliferation of guinea pig macrophages (guinea pig macrophages): capable of inhibiting the proliferation; inhibition of the replication of HIV (HIV [3]): partially inhibiting the replication of HIV
